Source: the supplement of paper PMC10627819

Legend:
[1] = tested on: B. subtilis 168; assay: Bliss interaction score (quartile over a dose matrix) (fitness difference); higher = more antagonism (negative = synergy)
How it was run: (§1)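 Growth in each well was taken as OD595 at entry into stationary phase. Dividing by the plate's robust no-drug mean and capping at 1 gave fitness, and single-drug fitness was inferred from the combination data. The Bliss score, observed minus product-expected fitness, is summarised by quartiles over technical, biological and donor/recipient replicates.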

[2] = tested on: S. aureus Newman; assay: as above
How it was run: as §1

[3] = tested on: S. pneumoniae D39V; assay: as above
How it was run: as §1

[4] = tested on: S. aureus DSM 20231; assay: as above
How it was run: as §1

[5] = tested on: S. aureus Newman; assay: fitness (endpoint OD595 vs no drug) (fraction); higher = more growth
How it was run: (§2)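 Fitness expresses the optical density reached at the stationary-phase transition as a fraction of the robust mean of no-drug control wells. It is capped at 1. Measurements were OD595 every 30 min for 14 h at 37 °C after inoculation of 384-well plates at OD595 0.01 (30 µl, or 55 µl for S. pneumoniae), minus the first reading.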

[6] = tested on: S. pneumoniae D39V; assay: as above
How it was run: as §2

[7] = tested on: S. aureus DSM 20231; assay: as above
How it was run: as §2
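Wherever Bliss interaction score (quartile over a dose matrix) is given: first quartile when negative (synergy) and third quartile when positive (antagonism).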

CO/N=C(\C(=O)N[C@@H]1C(=O)N2C(C(=O)[O-])=C(C[N+]3(C)CCCC3)CS[C@H]12)c1csc(N)n1 [Cefepime] + COc1c(N2C[C@@H]3CCCN[C@@H]3C2)c(F)cc2c(=O)c(C(=O)O)cn(C3CC3)c12 [Moxifloxacin]
Conditions | Bliss interaction score
[1] | 0.0325
[2] | 0.0732
[3] | -0.0484
[4] | -0.101

Conditions | fitness
[5], first compound 0.125 µg/mL, partner 0.0075 µg/mL | 0.748
[5], first compound 0.125 µg/mL, partner 0.015 µg/mL | 0.616
[5], first compound 0.25 µg/mL, partner 0.0075 µg/mL | 0.738
[5], first compound 0.25 µg/mL, partner 0.015 µg/mL | 0.615
[5], first compound 0.5 µg/mL, partner 0.0075 µg/mL | 0.695
[6], first compound 0.007 µg/mL, partner 0.0312 µg/mL | 0.146
[6], first compound 0.007 µg/mL, partner 0.0625 µg/mL | 0.0456
[6], first compound 0.007 µg/mL, partner 0.125 µg/mL | 0.0274
[6], first compound 0.0078 µg/mL, partner 0.005 µg/mL | ≥ 1
[6], first compound 0.0078 µg/mL, partner 0.01 µg/mL | 0.981
[6], first compound 0.0078 µg/mL, partner 0.02 µg/mL | ≥ 1
[6], first compound 0.014 µg/mL, partner 0.0312 µg/mL | 0.137
[6], first compound 0.014 µg/mL, partner 0.0625 µg/mL | 0.0527
[6], first compound 0.014 µg/mL, partner 0.125 µg/mL | 0.0539
[6], first compound 0.0155 µg/mL, partner 0.005 µg/mL | 0.987
[6], first compound 0.0155 µg/mL, partner 0.01 µg/mL | 0.971
[6], first compound 0.0155 µg/mL, partner 0.02 µg/mL | ≥ 1
[6], first compound 0.028 µg/mL, partner 0.0312 µg/mL | 0.077
[6], first compound 0.028 µg/mL, partner 0.0625 µg/mL | 0.0286
[6], first compound 0.028 µg/mL, partner 0.125 µg/mL | 0.0219
[6], first compound 0.031 µg/mL, partner 0.02 µg/mL | 0.805
[7], first compound 0.125 µg/mL, partner 0.0075 µg/mL | 0.664
[7], first compound 0.125 µg/mL, partner 0.015 µg/mL | 0.681
[7], first compound 0.125 µg/mL, partner 0.03 µg/mL | 0.616
[7], first compound 0.25 µg/mL, partner 0.0075 µg/mL | 0.69
[7], first compound 0.25 µg/mL, partner 0.015 µg/mL | 0.682
[7], first compound 0.25 µg/mL, partner 0.03 µg/mL | 0.592
[7], first compound 0.5 µg/mL, partner 0.0075 µg/mL | 0.766
[7], first compound 0.5 µg/mL, partner 0.015 µg/mL | 0.641
[7], first compound 0.5 µg/mL, partner 0.03 µg/mL | 0.565

fitness, [7], one replicate
Conditions | first compound 0.125 µg/mL | first compound 0.25 µg/mL | first compound 0.5 µg/mL
partner 0.06 µg/mL | 0.645 | 0.622 | 0.579
partner 0.12 µg/mL | 0.469 | 0.521 | 0.482

CC1(C)S[C@@H]2[C@H](NC(=O)[C@H](N)c3ccc(O)cc3)C(=O)N2[C@H]1C(=O)O [Amoxicillin] + CN1C2=CC=CC=C2N=C3C1=CC=CC3=O [Pyocyanin]
Conditions | Bliss interaction score
[1] | -0.0439
[2] | 0.0587
[3] | 0.0791
[4] | 0.0915

Conditions | fitness
[5], first compound 0.0625 µg/mL, partner 1.25 µg/mL | 0.829
[5], first compound 0.0625 µg/mL, partner 2.5 µg/mL | 0.71
[5], first compound 0.0625 µg/mL, partner 5 µg/mL | 0.486
[5], first compound 0.125 µg/mL, partner 2.5 µg/mL | 0.767
[5], first compound 0.125 µg/mL, partner 5 µg/mL | 0.374
[6], first compound 0.0008 µg/mL, partner 0.325 µg/mL | 0.992
[6], first compound 0.0008 µg/mL, partner 0.65 µg/mL | 0.987
[6], first compound 0.0015 µg/mL, partner 0.325 µg/mL | ≥ 1
[6], first compound 0.0015 µg/mL, partner 0.65 µg/mL | 0.978
[6], first compound 0.0015 µg/mL, partner 1.3 µg/mL | 0.935
[6], first compound 0.003 µg/mL, partner 0.325 µg/mL | ≥ 1
[6], first compound 0.003 µg/mL, partner 0.65 µg/mL | 0.974
[6], first compound 0.003 µg/mL, partner 1.3 µg/mL | 0.945
[7], first compound 0.0625 µg/mL, partner 1.25 µg/mL | 0.673
[7], first compound 0.0625 µg/mL, partner 2.5 µg/mL | 0.635
[7], first compound 0.0625 µg/mL, partner 5 µg/mL | 0.435
[7], first compound 0.125 µg/mL, partner 1.25 µg/mL | 0.418
[7], first compound 0.125 µg/mL, partner 2.5 µg/mL | 0.417
[7], first compound 0.125 µg/mL, partner 5 µg/mL | 0.254
[7], first compound 0.25 µg/mL, partner 1.25 µg/mL | 0.216
[7], first compound 0.25 µg/mL, partner 2.5 µg/mL | 0.195
[7], first compound 0.25 µg/mL, partner 5 µg/mL | 0.121

one replicate
Conditions | fitness
[6], first compound 0.0008 µg/mL, partner 1.3 µg/mL | 0.907
[6], first compound 0.006 µg/mL, partner 0.325 µg/mL | 0.624
[6], first compound 0.006 µg/mL, partner 0.65 µg/mL | 0.63
[6], first compound 0.006 µg/mL, partner 1.3 µg/mL | 0.734
[7], first compound 0.5 µg/mL, partner 1.25 µg/mL | 0.0229
[7], first compound 0.5 µg/mL, partner 2.5 µg/mL | 0.0134
[7], first compound 0.5 µg/mL, partner 5 µg/mL | 0.0115

CC1(C)S[C@@H]2[C@H](NC(=O)[C@H](N)c3ccc(O)cc3)C(=O)N2[C@H]1C(=O)O [Amoxicillin] + C[C@@H]1O[C@@H]1P(=O)(O)O [Fosfomycin]
Conditions | Bliss interaction score
[1] | 0.102
[2] | 0.0512
[3] | -0.113
[4] | -0.169

Conditions | fitness
[5], first compound 0.0625 µg/mL, partner 0.781 µg/mL | 0.612
[5], first compound 0.0625 µg/mL, partner 1.562 µg/mL | 0.506
[5], first compound 0.125 µg/mL, partner 0.781 µg/mL | 0.597
[5], first compound 0.125 µg/mL, partner 3.124 µg/mL | 0.185
[5], first compound 0.25 µg/mL, partner 0.781 µg/mL | 0.567
[5], first compound 0.25 µg/mL, partner 3.124 µg/mL | 0.096
[6], first compound 0.0008 µg/mL, partner 1.25 µg/mL | 0.938
[6], first compound 0.0008 µg/mL, partner 2.5 µg/mL | 0.893
[6], first compound 0.0008 µg/mL, partner 5 µg/mL | 0.803
[6], first compound 0.0015 µg/mL, partner 1.25 µg/mL | 0.914
[6], first compound 0.0015 µg/mL, partner 2.5 µg/mL | 0.887
[6], first compound 0.0015 µg/mL, partner 5 µg/mL | 0.672
[6], first compound 0.003 µg/mL, partner 1.25 µg/mL | 0.877
[6], first compound 0.003 µg/mL, partner 2.5 µg/mL | 0.834
[6], first compound 0.003 µg/mL, partner 5 µg/mL | 0.531
[7], first compound 0.0625 µg/mL, partner 0.781 µg/mL | 0.469
[7], first compound 0.0625 µg/mL, partner 1.562 µg/mL | 0.369
[7], first compound 0.0625 µg/mL, partner 3.124 µg/mL | 0.0511
[7], first compound 0.125 µg/mL, partner 0.781 µg/mL | 0.278
[7], first compound 0.125 µg/mL, partner 1.562 µg/mL | 0.0267
[7], first compound 0.125 µg/mL, partner 3.124 µg/mL | 0.0388
[7], first compound 0.25 µg/mL, partner 0.781 µg/mL | 0.0416
[7], first compound 0.25 µg/mL, partner 1.562 µg/mL | 0.0638
[7], first compound 0.25 µg/mL, partner 3.124 µg/mL | 0.038

fitness, one replicate
Conditions | partner 0.781 µg/mL | partner 1.25 µg/mL | partner 1.562 µg/mL | partner 2.5 µg/mL | partner 3.124 µg/mL | partner 5 µg/mL
[6], first compound 0.006 µg/mL | – | 0.339 | – | 0.279 | – | 0.146
[7], first compound 0.5 µg/mL | 0.0154 | – | 0.0129 | – | 0.0057 | –
